Drawing on PubChem BioAssay AID179 (DTP/NCI, 2004), this text covers EC50, IC50 and outcome for 73 molecules.

The test system of the experiment is CEM cells HIV-1 protection, formazan growth assay. Kind of experiment: NCI AIDS Antiviral Assay. The conditions noted are these: for IC50: measured here: growth of uninfected CEM cells. A digest of the protocol:
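Human CEM cells, uninfected and HIV-1-infected, exposed to five drug concentrations; growth measured by soluble formazan assay and scored as percent protection from infection, with protecting compounds retested.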

“And” between values parts separate entries of the source, which are not always exact repeats. Identical values can stand only once. The source made the active and inactive calls.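 How the source made its calls: active means compounds giving half or more protection of infected cells from virus-caused growth loss, again on retest; inactive means the rest.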 Where a SMILES comes first, the peptide text is derived from it.

For the molecule `NC(=O)CN1CCN(CCCN2c3ccccc3Sc3ccc(Cl)cc32)CC1`, the EC50 is over 200 µM and the half-inhibitory concentration (IC50) was found to be 30.9 µM.
The matching figures for `COC(=O)c1cc(=O)n2c(c1C(C)=O)N(C)CC2`: over 427 µM and over 427 µM.
On to `CCOP(=O)(OCC)C(N)C(C)CC` (stereo not drawn), for which the EC50 is over 479 µM and the 50% inhibitory concentration (IC50) is over 479 µM.
For `CN1CCCCC(C(O)(c2ccccc2)c2ccccc2)C1=O` (stereo not drawn), the EC50 is over 115 µM and the concentration for half-maximal inhibition (IC50) stood at 0.363 µM.
For the molecule `CCCC/C=C(/C(O)[C@]1(C)OC(=O)N2CCC[C@H]21)[Si](C)(C)C` (stereo partly drawn), the EC50 was over 759 µM and the IC50 was over 759 µM.
For `CCCCCCCCCCCCCCCC(=O)Nc1ccn(C2CCC(COP(=O)(O)O)O2)c(=O)n1` (stereo not drawn), the EC50 is 1.58 µM and the concentration for half-maximal inhibition (IC50) was found to be 50.1 µM.
The corresponding values for `O=C1N[C@@H]2CCC[C@@H]2[C@@H]1c1ccc(Cl)cc1` are over 380 µM and 155 µM.
The corresponding values for `FC(F)(F)C(F)(F)/C(=N/Nc1ccccc1)SS/C(=N\Nc1ccccc1)C(F)(F)C(F)(F)F` are over 200 µM and 3.16 µM.
As to `Cc1c(C#N)c(N)[nH]c(=S)c1C#N`, the EC50 is over 200 µM and the 50% inhibitory concentration (IC50) is over 200 µM.
For `CCOC1(C)Nc2cc(OC)cc3c2N1C(=O)CCS3` (stereo not drawn), the EC50 is over 200 µM and the IC50 was determined as 95.5 µM.
The matching figures for `O=C1NC(=O)C(=Cc2cccc(Br)c2)C(=O)N1`: over 123 µM and over 123 µM.
For the molecule `O=C(O)c1ccc(-c2ccc(-c3cc(=S)sc(=O)[nH]3)cc2)cc1`, the EC50 is over 263 µM and the IC50 came out at 89.1 µM.
The matching figures for `Cc1cc(C(C)(C)C)cc(Cc2cc(C(C)(C)C)cc(Cc3cc(C(C)(C)C)cc(C)c3O)c2O)c1O`: over 20 µM and over 20 µM.
On to `Cc1ccc(S(=O)(=O)c2ccc(C)cc2[N+](=O)[O-])c([N+](=O)[O-])c1`, for which the EC50 is over 40.7 µM and the IC50 was over 40.7 µM.
Take `Cc1cc2c3c(c1)C(=O)CCN3CCC2=O`: the result was inactive.
Turning to `Cc1cc(Cl)cc2c1NC(=O)C2(O)CC(=O)c1ccco1` (stereo not drawn), the EC50 is over 117 µM and the IC50 came out at 63.1 µM.
The matching figures for `NS(=O)(=O)c1cc2c(cc1Cl)NC(/C(=N/NC(=O)c1ccncc1)C1C(=O)NC(=O)NC1=O)=NS2(=O)=O`: over 87.1 µM and over 87.1 µM.
For the molecule `O=C1NC2CCCCCC2C12CCCCC2` (stereo not drawn), the result was inactive.
On to `c1ccc(-c2c(-c3cccs3)[nH]c(-c3cccs3)c2-c2ccccn2)nc1`, for which the EC50 is over 38 µM and the IC50 stood at 25.7 µM.
For the molecule `O=S(=O)(F)c1cc(C[P+](c2ccccc2)(c2ccccc2)c2ccccc2)ccc1Cl`, the EC50 is over 200 µM and the IC50 came to 91.2 µM.
Turning to `CC1=N/C(=C\c2ccccc2)C(=O)O1`, the EC50 is over 20 µM and the IC50 is over 20 µM.
As to `Cc1ccc2oc(=O)c(C#N)c(/C=C/c3cccc(Br)c3)c2c1`, the EC50 is over 100 µM and the IC50 is over 100 µM.
As for `CC[Si](CC)(CC)OC(C#N)c1ccc2c(c1)OCO2` (stereo not drawn), the result was inactive.
`Cc1cc(C2CC(O)C(CO)O2)c(F)cc1F` (stereo not drawn): the EC50 is over 200 µM and the IC50 is over 200 µM.
`COc1ccc(-c2c(C)c(C(=O)O)nc(-c3ccc4c(O)c(OC)c5c(c4n3)=NC(C)(C)N=5)c2N)c(O)c1OC`: the EC50 is over 457 µM and the concentration for half-maximal inhibition (IC50) is 2.4 µM.
Turning to `O=C1NC(=S)N/C1=C/c1ccccc1O`, the EC50 was over 200 µM and the concentration for half-maximal inhibition (IC50) is 123 µM.
With `C=CCC1(CC(=O)O)CC=CCC12OCCO2` (stereo not drawn), the EC50 is over 200 µM and the half-inhibitory concentration (IC50) is over 200 µM.
Regarding `COc1ccc(/C=C/c2nc(=S)[nH][nH]2)cc1`, the EC50 was over 214 µM and the IC50 is over 214 µM.
Take `CCOC(=O)/C(=C\n1c(=O)[nH]c(=O)[nH]c1=S)C(=O)c1ccccc1`: the outcome was inactive.
`CCCCCC(/C=N/NC(N)=S)C(O)(C(F)(F)F)C(F)(F)F` (stereo not drawn): the EC50 was over 200 µM and the IC50 is 30.2 µM.
The corresponding values for `COc1c(C(=O)O)cccc1-c1cccc(C(=O)NCCN(CCNC(=O)c2cccc(-c3cccc(C(=O)O)c3OC)c2OC)CCNC(=O)c2cccc(-c3cccc(C(=O)O)c3OC)c2OC)c1OC` are over 200 µM and over 200 µM.
For the molecule `O=c1c(O)c(-c2ccccc2)oc2c(CP(=O)(O)O)cccc12`, the EC50 is over 200 µM and the IC50 came out at 162 µM.
The corresponding values for `O=C1OCC(Cc2ccc3c(c2)OCO3)[C@H]1Cc1ccc(O)cc1` (stereo partly drawn) are over 200 µM and 66.1 µM.
Turning to `COC(=O)C(C)(C)C(=O)C(C)(C)P(C)(=O)OC` (stereo not drawn), the EC50 is over 200 µM and the concentration for half-maximal inhibition (IC50) was over 200 µM.
On to `Oc1ccccc1C1SCc2nc3ccccc3n21` (stereo not drawn), for which the EC50 was over 26.9 µM and the IC50 is over 26.9 µM.
Turning to `CC(=O)OCCCCN1C(=O)CSc2ccccc21`, the EC50 is over 200 µM and the 50% inhibitory concentration (IC50) was over 200 µM.
`CC(C)CNC12CN3CN(CN(C3)C1)C2`: the EC50 is over 1200 µM and the IC50 was over 1200 µM.
For `CO[C@H]1C[C@](C)(O)Cc2cc3c(c(O)c21)C(=O)c1c(O)cc2c(c1C3=O)O[C@@H]1O[C@@]2(C)[C@H](O)[C@@H](N(C)C)[C@@H]1O`, the EC50 was over 6.92 µM and the IC50 worked out at 0.0468 µM.
The matching figures for `O=C1C(=O)c2ccccc2C(O)=C1C(C1=C(O)c2ccccc2C(=O)C1=O)c1ccc(Cl)cc1`: over 200 µM and 37.2 µM.
`CC(=O)Oc1ccc2c(c1)Oc1cc(OC(C)=O)ccc1C21OC(=O)c2ccccc21`: the EC50 was over 200 µM.
For the molecule `CN=c1ncn(C)c2ncn(C/C=C(\C)CC[C@@]3(C)C(C)CCC4(O)C3CCCC4(C)C)c12` (stereo partly drawn), the outcome was inactive.
Same read-out and setting: under `Nc1nc(N)c2c(n1)C(=O)N(Cc1ccccc1)C2` stands “inactive”.
With `NC1(C(=O)O)CCCC1c1ccccc1` (stereo not drawn), the EC50 was over 6.61 µM and the IC50 is over 6.61 µM.
Regarding `O=C(O)COc1ccc(S(=O)(=O)c2ccc(OCC(=O)O)c([N+](=O)[O-])c2)cc1[N+](=O)[O-]`, the EC50 was over 200 µM and the concentration for half-maximal inhibition (IC50) was over 200 µM.
For `CC(CO)S(=O)(=O)O` (stereo not drawn), the EC50 was over 200 µM and the half-maximal inhibitory concentration (IC50) is over 200 µM.
On to `CC1=CC(O)CC(C)(C)C1/C=C/C(C)=C/C=C/C(C)=C/C=C/C=C(C)/C=C/C=C(C)/C=C/C1=C(C)CC(O)CC1(C)C` (stereo not drawn), for which the EC50 was over 200 µM and the 50% inhibitory concentration (IC50) worked out at 33.9 µM.
`COc1ccc(C(C)NNC(=O)c2ccncc2)cc1F` (stereo not drawn): the EC50 was over 200 µM and the IC50 was 112 µM.
In the case of `O=C1OC(=O)C([Se]c2ccccc2)=C1[Se]c1ccccc1`, the outcome was inactive.
As to `CC1(C)OC(=O)C(=Cc2ccc(F)cc2)C(=O)O1`, the EC50 is over 525 µM and the half-inhibitory concentration (IC50) turned out to be 170 µM.
The corresponding values for `COC(=O)[C@H](Cc1ccc(O)cc1)NC(=O)[C@H](Cc1ccc(O)cc1)NC(=O)OC(C)(C)C` (HELM PEPTIDE1{[CC(C)(C)OC(=O)[*:2]].Y.Y.[CO[*:1]]}$$$$V2.0) are over 200 µM and 93.3 µM.
Consider `CCCCCCCCCCCCCCCC(=O)Nc1nc(=O)n(C2CCC(COP(=O)(O)OCC3OC(n4cc(C)c(=O)[nH]c4=O)CC3N=[N+]=[N-])O2)cc1C` (stereo not drawn), for which the EC50 is 0.363 µM and the IC50 stood at 115 µM.
With `COC(=O)c1sc2c(Cl)c(Cl)sc2c1Cl`, the EC50 is over 50.1 µM and the IC50 is over 50.1 µM.
Turning to `O=C(Nc1cc(Cl)c(Cl)cc1NC(=O)C(Cl)(Cl)Cl)C(Cl)(Cl)Cl`, the EC50 is over 200 µM and the 50% inhibitory concentration (IC50) worked out at 0.417 µM.
Regarding `C=C1CCCCCCCCCCC1S(=O)c1ccccc1` (stereo not drawn), the EC50 is over 200 µM and the concentration for half-maximal inhibition (IC50) came out at 12 µM.
As to `Cn1c(=O)oc2cc(C(=O)CN3CCN(Cc4ccc5c(c4)OCO5)CC3)c(Cl)cc21`, the EC50 is over 200 µM and the 50% inhibitory concentration (IC50) was found to be 178 µM.
Consider `CN(C(=O)C12C3C4C1C1C2C3C41C(O)C(C)(C)C)C(C)(C)C` (stereo not drawn), for which the EC50 is over 117 µM and the half-maximal inhibitory concentration (IC50) is over 117 µM.
For `CC/C(=C(\C#N)c1ccc(Cl)cc1)c1ccc(OCCN(CC)CC)cc1`, the EC50 was over 100 µM and the IC50 came out at 2.82 µM.
The corresponding values for `O=C(Nc1ccc(C2=NCCN2)cc1)c1ccc(C(=O)Nc2ccc(C3=NCCN3)cc2)c([N+](=O)[O-])c1` are over 200 µM and 29.5 µM.
For `CCOC(=O)C(C(=O)c1ccccc1-c1ccccc1C(=O)O)=P(c1ccccc1)(c1ccccc1)c1ccccc1`, the EC50 was over 229 µM and the IC50 stood at 43.7 µM.
The matching figures for `COC(=O)c1ccc2c(c1)CC1(C2)Cc2cc3c(cc2C1)CCC3`: over 200 µM and over 200 µM.
Consider `O=c1oc2ccccc2c(O)c1C(c1cnc2ccccc2c1)c1c(O)c2ccccc2oc1=O`, for which the outcome was inactive.
On the same count and under the same terms, under `O=[N+]([O-])c1ccc(C2=Nn3cnnc3SC2)o1` stands “inactive”.
For `CN(C)CCC=C1c2ccccc2C=Cc2ccccc21`, the EC50 was over 200 µM; the IC50 was 33.9 µM and 28.8 µM and 37.2 µM.
As to `COC(=O)CC[N+]1([O-])CC1`, the EC50 is over 200 µM and the concentration for half-maximal inhibition (IC50) was over 200 µM.
As to `N=C(N)SCc1ccc2c(c1)Sc1ccccc1O2`, the EC50 is over 200 µM and the concentration for half-maximal inhibition (IC50) came to 11.7 µM.
The matching figures for `CC(=O)CCNc1ccc(-c2cc(-c3ccc(N(C)C)cc3)nc3ccc4ccccc4c23)cc1`: over 200 µM and 102 µM.
For `Brc1cnc2n[nH]nc2c1`, the EC50 was over 912 µM and the half-maximal inhibitory concentration (IC50) was 525 µM.
Take `CC1(C)COC(c2ccccc2Cl)N1` (stereo not drawn): the result was inactive.
Still for that read-out and setting: the same measure for `O=[N+]([O-])c1ccc(C2=CSC3=NCCN23)cc1`: “inactive”.
For `CCOC(=O)C(NC(=O)c1[nH]cnc1/N=N/N(C)C)C(C)C` (stereo not drawn), the EC50 was over 23.4 µM and the 50% inhibitory concentration (IC50) was over 23.4 µM.
As for `C=C/C=C/NC(=O)OCc1ccccc1`, the result was inactive.
As to `CN(C)CCc1ccc(Cl)cc1Cl`, the EC50 was over 977 µM and the IC50 stood at 407 µM.
The matching figures for `OCC1OC(n2cnc3c(=S)nc[nH]c32)C(O)C1O` (stereo not drawn): over 871 µM and 617 µM.

Usually EC50 stands for the concentration needed to bring the measured effect to its halfway point. For orientation: IC50 means the midpoint of a concentration-inhibition curve. Lower therefore signals higher potency.
